According to patent US20230233569A1 (Revolution Medicines, Inc., priority 2020, published 2023):

What was measured:
AsPC-1 (K-Ras G12D) [1] = test: Potency assay: pERK; format: cell-based; conditions: Homo sapiens, ASPC1, read-out: pERK EC50
NCI-H358 (K-Ras G12C) = test: CellTiter-Glo cell viability assay; format: cell-based; conditions: Homo sapiens, NCI-H358, 120 h, read-out: H358 Cell Viability assay data IC50, K-Ras G12C, 5-day treatment
Outline: (§1)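 Percent-of-DMSO luminescence values (CellTiter-Glo, day 5, plates equilibrated ~30 minutes at ambient temperature) were curve-fitted using a 4-parameter logistic equation; compounds had been added straight into wells containing the cells.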

KRAS G12D = KRAS G12D (Homo sapiens, UniProt P01116+P62937, G12D); test: Ras-Raf disruption / FRET / MOA assay (BRAF RBD); format: biochemical; conditions: KRAS G12D FRET data IC50, Ras-Raf disruption, with Cyclophilin A
Sequence of KRAS G12D (P01116 1-169 isoform P01116-2 G12D limits assumed): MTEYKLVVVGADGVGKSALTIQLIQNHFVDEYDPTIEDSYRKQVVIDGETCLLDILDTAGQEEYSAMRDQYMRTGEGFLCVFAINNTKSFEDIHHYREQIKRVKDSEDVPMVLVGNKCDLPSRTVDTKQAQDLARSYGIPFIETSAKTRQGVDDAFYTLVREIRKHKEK
Sequence of KRAS G12D (P62937 whole entry): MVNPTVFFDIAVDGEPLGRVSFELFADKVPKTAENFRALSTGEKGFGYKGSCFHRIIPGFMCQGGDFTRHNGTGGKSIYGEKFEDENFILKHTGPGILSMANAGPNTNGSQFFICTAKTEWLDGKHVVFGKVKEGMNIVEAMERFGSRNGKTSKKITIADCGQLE
Outline: (§2)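 Compound-induced Ras–Cyclophilin A ternary complex disrupting BRAF RBD binding, read as IC50 from reduced TR-FRET ratio relative to DMSO. Final: Ras-GMPPNP 12.5 nM, BRAF RBD 50 nM, Cyclophilin A 25 μM, top compound 30 μM (3-fold, 10 points); 3 h at 25 °C, then 1.5 h with detection antibodies.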

KRAS G12S = KRAS G12S (Homo sapiens, UniProt P01116+P62937, G12S); test: Ras-Raf disruption / FRET / MOA assay (BRAF RBD); format: biochemical; conditions: KRAS G12S FRET data IC50, Ras-Raf disruption, with Cyclophilin A
Sequence of KRAS G12S (P01116 1-169 isoform P01116-2 G12S limits assumed): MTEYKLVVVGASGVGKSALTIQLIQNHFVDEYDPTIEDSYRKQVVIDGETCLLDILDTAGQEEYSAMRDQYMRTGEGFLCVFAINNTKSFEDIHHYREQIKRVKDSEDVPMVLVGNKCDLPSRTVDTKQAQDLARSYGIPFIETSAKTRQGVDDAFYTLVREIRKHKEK
Sequence of KRAS G12S (P62937 whole entry): as the sequence (P62937 whole entry) above
Outline: as §2

KRAS G12V = KRAS G12V (Homo sapiens, UniProt P01116+P62937, G12V); test: Ras-Raf disruption / FRET / MOA assay (BRAF RBD); format: biochemical; conditions: KRAS G12V FRET data IC50, Ras-Raf disruption, with Cyclophilin A
Sequence of KRAS G12V (P01116 1-169 isoform P01116-2 G12V limits assumed): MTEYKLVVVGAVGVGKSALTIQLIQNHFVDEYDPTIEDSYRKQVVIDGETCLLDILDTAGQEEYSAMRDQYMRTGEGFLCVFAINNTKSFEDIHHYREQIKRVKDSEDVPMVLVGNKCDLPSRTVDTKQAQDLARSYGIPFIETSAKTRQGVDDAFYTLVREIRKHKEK
Sequence of KRAS G12V (P62937 whole entry): as the sequence (P62937 whole entry) above
Outline: as §2

KRAS G13C = KRAS G13C (Homo sapiens, UniProt P01116+P62937, G13C); test: Ras-Raf disruption / FRET / MOA assay (BRAF RBD); format: biochemical; conditions: KRAS G13C FRET data IC50, Ras-Raf disruption, with Cyclophilin A
Sequence of KRAS G13C (P01116 1-169 isoform P01116-2 G13C limits assumed): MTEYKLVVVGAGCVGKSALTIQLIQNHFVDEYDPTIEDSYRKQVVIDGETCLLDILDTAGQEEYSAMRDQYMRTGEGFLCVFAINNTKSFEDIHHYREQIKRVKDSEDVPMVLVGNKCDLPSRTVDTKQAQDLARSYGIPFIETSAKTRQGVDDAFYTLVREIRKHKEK
Sequence of KRAS G13C (P62937 whole entry): as the sequence (P62937 whole entry) above
Outline: as §2

KRAS G13D = KRAS G13D (Homo sapiens, UniProt P01116+P62937, G13D); test: Ras-Raf disruption / FRET / MOA assay (BRAF RBD); format: biochemical; conditions: KRAS G13D FRET data IC50, Ras-Raf disruption, with Cyclophilin A
Sequence of KRAS G13D (P01116 1-169 isoform P01116-2 G13D limits assumed): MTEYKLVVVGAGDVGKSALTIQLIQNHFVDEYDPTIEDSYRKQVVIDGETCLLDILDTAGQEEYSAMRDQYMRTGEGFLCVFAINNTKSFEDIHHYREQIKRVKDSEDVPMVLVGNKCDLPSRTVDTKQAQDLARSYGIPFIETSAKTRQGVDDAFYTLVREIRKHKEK
Sequence of KRAS G13D (P62937 whole entry): as the sequence (P62937 whole entry) above
Outline: as §2

KRAS WT = KRAS WT (Homo sapiens, UniProt P01116+P62937); test: Ras-Raf disruption / FRET / MOA assay (BRAF RBD); format: biochemical; conditions: KRAS WT FRET data IC50, Ras-Raf disruption, with Cyclophilin A
Sequence of KRAS WT (P01116 1-169 isoform P01116-2 limits assumed): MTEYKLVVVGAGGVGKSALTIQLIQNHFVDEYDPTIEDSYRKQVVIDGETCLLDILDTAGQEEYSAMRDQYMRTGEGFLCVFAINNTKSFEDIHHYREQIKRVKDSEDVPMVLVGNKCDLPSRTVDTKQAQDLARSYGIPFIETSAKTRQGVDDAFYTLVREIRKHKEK
Sequence of KRAS WT (P62937 whole entry): as the sequence (P62937 whole entry) above
Outline: as §2

NRAS G12C = NRAS G12C (Homo sapiens, UniProt P01111+P62937, G12C); test: Ras-Raf disruption / FRET / MOA assay (BRAF RBD); format: biochemical; conditions: NRAS G12C FRET data IC50, NRAS G12C
Sequence of NRAS G12C (P01111 whole entry G12C): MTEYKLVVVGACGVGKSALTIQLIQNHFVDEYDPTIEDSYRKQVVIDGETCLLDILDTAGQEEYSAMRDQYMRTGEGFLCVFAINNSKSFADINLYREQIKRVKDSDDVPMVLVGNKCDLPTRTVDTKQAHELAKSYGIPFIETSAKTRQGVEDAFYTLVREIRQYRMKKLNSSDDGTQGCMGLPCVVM
Sequence of NRAS G12C (P62937 whole entry): as the sequence (P62937 whole entry) above
Outline: as §2

KRAS G12C = KRAS G12C (Homo sapiens, UniProt P01116+P62937, G12C); test: Ras-Raf disruption / FRET / MOA assay (BRAF RBD); format: biochemical; conditions: KRAS G12C FRET data IC50, Ras-Raf disruption, with Cyclophilin A
Sequence of KRAS G12C (P01116 1-169 isoform P01116-2 G12C limits assumed): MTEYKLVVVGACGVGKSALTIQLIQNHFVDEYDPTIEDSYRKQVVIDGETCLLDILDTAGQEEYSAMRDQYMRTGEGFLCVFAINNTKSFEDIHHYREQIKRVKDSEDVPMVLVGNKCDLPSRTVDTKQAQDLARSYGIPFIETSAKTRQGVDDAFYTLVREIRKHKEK
Sequence of KRAS G12C (P62937 whole entry): as the sequence (P62937 whole entry) above
Outline: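 TR-FRET read-out after 1.5 h with anti-His Eu-W1024 (10 nM) and anti-GST APC (50 nM), following 3 h at 25 °C of compound (top 30 μM, 3-fold, 10 points) with 25 μM Cyclophilin A, 12.5 nM GMPPNP-loaded K-Ras G12C and 50 nM BRAF RBD; IC50 reported.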

AsPC-1 (K-Ras G12D) [2] = test: CellTiter-Glo cell viability assay; format: cell-based; conditions: Homo sapiens, ASPC1, 120 h, read-out: AsPC-1 Cell Viability assay data IC50, K-Ras G12D, 5-day treatment
Outline: as §1

SMILES | EC50 (AsPC-1 (K-Ras G12D) [1]) [nM] | IC50 (NCI-H358 (K-Ras G12C)) [nM] | IC50 (KRAS G12D) [nM] | IC50 (KRAS G12S) [nM] | IC50 (KRAS G12V) [nM] | IC50 (KRAS G13C) [nM] | IC50 (KRAS G13D) [nM] | IC50 (KRAS WT) [nM] | IC50 (NRAS G12C) [nM] | IC50 (KRAS G12C) [nM] | IC50 (AsPC-1 (K-Ras G12D) [2]) [nM]
CCn1c(-c2cccnc2[C@H](C)OC)c2c3cc(ccc31)-c1cc(O)cc(c1)C[C@H](NC(=O)[C@H](C(C)C)N(C)C(=O)CN(C)C(=O)[C@H]1CN1)C(=O)N1CCC[C@H](N1)C(=O)OCC(C)(C)C2 (single isomer, unassigned) [Example 42A] | < 5000 | < 10 | 10 to 100 | 10 to 100 | 10 to 100 | < 10 | 10 to 100 | 10 to 100 | < 10 | < 10 | 
CCn1c(-c2cnccc2COC)c2c3cc(ccc31)-c1cc(O)cc(c1)C[C@H](NC(=O)[C@H](C(C)C)N(C)C(=O)CN(C)C(=O)[C@H]1CN1)C(=O)N1CCC[C@H](N1)C(=O)OCC(C)(C)C2 [Example 7] | < 5000 | 10 to 100 |  |  |  |  |  |  |  |  | 100 to 1000
CCn1c(-c2cnccc2COC)c2c3cc(ccc31)-c1cc(O)cc(c1)C[C@H](NC(=O)[C@H](C(C)C)N(C)C(=O)CN(C)C(=O)[C@@H]1CN1)C(=O)N1CCC[C@H](N1)C(=O)OCC(C)(C)C2 [Example 8] | < 5000 | 10 to 100 |  |  |  |  |  |  |  |  | 1000 to 10000
CCn1c(-c2cnccc2COC)c2c3cc(ccc31)-c1cc(O)cc(c1)C[C@H](NC(=O)[C@H](C(C)C)N(C)C(=O)CN(C)C(=O)[C@H]1CN1Cc1ccccc1)C(=O)N1CCC[C@H](N1)C(=O)OCC(C)(C)C2 (stereo partly drawn) [Example 9] | < 5000 | 10 to 100 |  |  |  |  |  |  |  |  | 1000 to 10000
CCn1c(-c2cnccc2COC)c2c3cc(ccc31)-c1cc(O)cc(c1)C[C@H](NC(=O)[C@H](C(C)C)N(C)C(=O)CN(C)C(=O)[C@@H]1CN1Cc1ccccc1)C(=O)N1CCC[C@H](N1)C(=O)OCC(C)(C)C2 (stereo partly drawn) [Example 10] | < 5000 | 10 to 100 |  |  |  |  |  |  |  |  | 1000 to 10000
CCn1c(-c2cnccc2COC)c2c3cc(ccc31)-c1cc(O)cc(c1)C[C@H](NC(=O)[C@H](C(C)C)N(C)C(=O)CN(C)C(=O)[C@@H]1N[C@H]1c1ccccc1)C(=O)N1CCC[C@H](N1)C(=O)OCC(C)(C)C2 [Example 11] | < 5000 | 100 to 1000 |  |  |  |  |  |  |  |  | 1000 to 10000
CCn1c(-c2cnccc2COC)c2c3cc(ccc31)-c1cc(O)cc(c1)C[C@H](NC(=O)[C@H](C(C)C)N(C)C(=O)CN(C)C(=O)[C@H]1N[C@@H]1c1ccccc1)C(=O)N1CCC[C@H](N1)C(=O)OCC(C)(C)C2 [Example 12] | < 5000 | 100 to 1000 |  |  |  |  |  |  |  |  | 100 to 1000
CCn1c(-c2cnccc2COC)c2c3cc(ccc31)-c1cc(O)cc(c1)C[C@H](NC(=O)[C@H](C(C)C)N(C)C(=O)CN(C)C(=O)[C@@H]1N[C@@H]1C(=O)OC)C(=O)N1CCC[C@H](N1)C(=O)OCC(C)(C)C2 [Example 49] | < 5000 | 1000 to 10000 | 100 to 1000 | 100 to 1000 | 100 to 1000 | 10 to 100 | 100 to 1000 | 100 to 1000 | 10 to 100 | 10 to 100 | 1000 to 10000
